# Data from US10245229B2, “Pulmonary delivery of mRNA to non-lung target cells” (Shire Human Genetic Therapies, Inc., priority 2012, dated 2019).
# Test system: non-lung cells
# Assay: Comparison of delivery vehicles: luminescence in non-lung cells following pulmonary delivery
# Type: in vivo
# Settings: following pulmonary delivery of FFL mRNA with the delivery vehicle
smiles,measurement,value
"CCCCCCCC/C=C\CCCCCCCC(=O)OCC(C[N+](C)(C)C)OC(=O)CCCCCCC/C=C\CCCCCCCC (stereo not shown) [DOTAP, 1,2-Dioleoyl-3-Trimethylammonium-Propane]",Luminescence / protein production in non-lung cells,did not show luminescence in non-lung cells
